Test results published in article PMC10818931, “In Vitro Evaluation of Drug–Drug Interaction Potential of Epetraborole, a Novel Bacterial Leucyl-tRNA Synthetase Inhibitor” (Pharmaceuticals, 2024).

Columns and labels:
BCRP = molecular target: T1, BCRP (Homo sapiens, UniProt Q9UNQ0); test: Substrate potential for BCRP, bidirectional permeability in BCRP-MDCK; assay type: in vitro ADME; conditions: human; BCRP-MDCK; read-out: Efflux ratio of control compound
T1 construct: host or cells: MDCK (BCRP-MDCK)
T1 sequence (Q9UNQ0 1-655): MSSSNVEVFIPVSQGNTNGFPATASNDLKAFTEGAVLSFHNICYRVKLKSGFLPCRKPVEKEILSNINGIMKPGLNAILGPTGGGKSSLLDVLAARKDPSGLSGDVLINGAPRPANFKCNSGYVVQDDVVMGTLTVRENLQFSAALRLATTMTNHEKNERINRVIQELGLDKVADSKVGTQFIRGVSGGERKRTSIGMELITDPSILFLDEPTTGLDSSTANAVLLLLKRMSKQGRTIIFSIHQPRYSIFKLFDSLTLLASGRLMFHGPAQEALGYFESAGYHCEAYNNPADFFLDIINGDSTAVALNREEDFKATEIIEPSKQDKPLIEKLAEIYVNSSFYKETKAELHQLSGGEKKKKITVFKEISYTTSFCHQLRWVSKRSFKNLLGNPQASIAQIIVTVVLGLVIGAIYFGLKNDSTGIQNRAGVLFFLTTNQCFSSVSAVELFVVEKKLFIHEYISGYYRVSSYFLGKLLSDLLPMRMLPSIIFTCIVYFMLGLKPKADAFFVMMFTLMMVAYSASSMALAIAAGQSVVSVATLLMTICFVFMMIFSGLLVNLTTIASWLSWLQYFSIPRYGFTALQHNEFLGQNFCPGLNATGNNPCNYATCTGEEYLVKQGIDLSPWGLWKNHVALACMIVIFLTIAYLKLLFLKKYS

CYP3A4 = test: CYP mRNA induction in plated human hepatocytes (qPCR); conditions: CYP3A4, flumazenil 25 µM
Method: (§1) The induction potential of EBO and M3 on CYP1A2, CYP2B6, and 3A4 was evaluated by incubating the test articles with plated human hepatocytes from 3 individual donors (GKJ, ZEY, WKF) in triplicate according to WuXi AppTec (Cranbury, NJ, USA) SOP.
(§2) At the end of incubation, the RNA of human hepatocytes was isolated and the mRNA expression levels of CYP 1A2, 2B6, and 3A4 were evaluated by using real-time polymerase chain reaction (qPCR) after being reverse-transcribed (RT) to cDNA following manufacturer’s instruction (thermos Fisher Scientific (Waltham, MA, USA). On the last dosing day with EBO or M3, incubation samples were extracted in triplicate by the addition of ice-cold quench solutions at 0, 0.5, 1, 2, 4, 6, and 24 h after dosing and the extracted samples were analyzed using LC-MS/MS to determine the EBO or M3 concentration in each sample.

CYP1A2 = test: as above; conditions: CYP1A2, flumazenil 25 µM
Method: as §1, §2

CYP2B6 = test: as above; conditions: CYP2B6; for mRNA Induction Fold in Controls NC: flumazenil 25 µM; for mRNA Induction Fold in Controls PC: phenobarbital 750 µM
Method: as §1, §2

in vitro = conditions: human, Caco-2
Method: ^14C-EBO permeability in Caco-2 Cells (MDR1/Protein Glycoprotein or P-gp) was determined using methodologies described previously. The apparent permeability of ^14C-EBO was determined in both the apical to basolateral and the basolateral to apical directions, in triplicate, at final concentrations of 1, 10, and 100 μM. Cell monolayers were incubated with ^14C-EBO at 37 °C for 1, 2, 3, and 4 h. The transepithelial electrical resistance (TEER) values of the monolayers prior to and following each experiment were measured to confirm the integrity of the Caco-2 cell monolayers. The apparent permeability of ^14C-EBO (at a final concentration of 10 μM) was determined in both the apical to basolateral and basolateral to apical directions under the same conditions as previously described in the presence of P-gp inhibitors cyclosporine A (10 μM) and verapamil (100 μM) in the donor compartment.

[1] = donor one, control of EBO experiment
[2] = donor one, control of M3 experiment
[3] = donor three, control of EBO experiment
[4] = donor three, control of M3 experiment
[5] = donor two, control of EBO experiment
[6] = donor two, control of M3 experiment

## Nc1nc(Cl)nc2c1ncn2[C@H]1C[C@H](O)[C@@H](CO)O1 [cladribine, reference compound]
BCRP
  efflux ratio: 288

## CCOC(=O)c1ncn2c1CN(C)C(=O)c1cc(F)ccc1-2 [flumazenil]
CYP3A4; [1]
  mRNA Induction Fold in Controls NC: 0.89 Fold
CYP3A4; [2]
  mRNA Induction Fold in Controls NC: 1.06 Fold
CYP3A4; [3]
  mRNA Induction Fold in Controls NC: 0.98 Fold
CYP3A4; [4]
  mRNA Induction Fold in Controls NC: 0.87 Fold
CYP3A4; [5]
  mRNA Induction Fold in Controls NC: 0.96 Fold
CYP3A4; [6]
  mRNA Induction Fold in Controls NC: 0.66 Fold
CYP1A2; [1]
  mRNA Induction Fold in Controls NC: 0.71 Fold
CYP1A2; [2]
  mRNA Induction Fold in Controls NC: 0.94 Fold
CYP1A2; [3]
  mRNA Induction Fold in Controls NC: 0.75 Fold
CYP1A2; [4]
  mRNA Induction Fold in Controls NC: 0.74 Fold
CYP1A2; [5]
  mRNA Induction Fold in Controls NC: 0.94 Fold
CYP1A2; [6]
  mRNA Induction Fold in Controls NC: 0.82 Fold
CYP2B6; [1]
  mRNA Induction Fold in Controls NC: 0.84 Fold
CYP2B6; [2]
  mRNA Induction Fold in Controls NC: 0.91 Fold
CYP2B6; [3]
  mRNA Induction Fold in Controls NC: 1.00 Fold
CYP2B6; [4]
  mRNA Induction Fold in Controls NC: 0.87 Fold
CYP2B6; [5]
  mRNA Induction Fold in Controls NC: 1.09 Fold
CYP2B6; [6]
  mRNA Induction Fold in Controls NC: 0.87 Fold

## OC[C@@H](O)[C@@H](O)[C@H](O)[C@H](O)CO [mannitol, reference compound]
In vitro
  Papp: 0.19 to 0.69 ×10⁻⁶ cm/s

## CCC1(c2ccccc2)C(=O)NC(=O)NC1=O [phenobarbital]
CYP2B6; [1]
  mRNA Induction Fold in Controls PC: 7.45 Fold
CYP2B6; [2]
  mRNA Induction Fold in Controls PC: 9.17 Fold
CYP2B6; [3]
  mRNA Induction Fold in Controls PC: 6.64 Fold
CYP2B6; [4]
  mRNA Induction Fold in Controls PC: 6.86 Fold
CYP2B6; [5]
  mRNA Induction Fold in Controls PC: 6.88 Fold
CYP2B6; [6]
  mRNA Induction Fold in Controls PC: 6.29 Fold
